From patent US20250011330A1, “Imidazo[1,2- a]pyrazine and Imidazo[1,2- a]pyridine Based Tyrosyl-DNA Phosphodiesterase I (TDP1) Inhibitors” (The USA, As Represented by the Secretary, Department of …, priority 2021, published 2025)
Read-outs that look alike come from different tables or passages of the source.

What was measured:
[1] = molecular target: TDP1 (Homo sapiens (Human), UniProt Q9NUW8); experiment: TDP1 gel-based in vitro fluorescence assay; assay type: biochemical; conditions: for IC50: read-out: TDP1 IC50
Sequence of TDP1 (Q9NUW8 whole entry): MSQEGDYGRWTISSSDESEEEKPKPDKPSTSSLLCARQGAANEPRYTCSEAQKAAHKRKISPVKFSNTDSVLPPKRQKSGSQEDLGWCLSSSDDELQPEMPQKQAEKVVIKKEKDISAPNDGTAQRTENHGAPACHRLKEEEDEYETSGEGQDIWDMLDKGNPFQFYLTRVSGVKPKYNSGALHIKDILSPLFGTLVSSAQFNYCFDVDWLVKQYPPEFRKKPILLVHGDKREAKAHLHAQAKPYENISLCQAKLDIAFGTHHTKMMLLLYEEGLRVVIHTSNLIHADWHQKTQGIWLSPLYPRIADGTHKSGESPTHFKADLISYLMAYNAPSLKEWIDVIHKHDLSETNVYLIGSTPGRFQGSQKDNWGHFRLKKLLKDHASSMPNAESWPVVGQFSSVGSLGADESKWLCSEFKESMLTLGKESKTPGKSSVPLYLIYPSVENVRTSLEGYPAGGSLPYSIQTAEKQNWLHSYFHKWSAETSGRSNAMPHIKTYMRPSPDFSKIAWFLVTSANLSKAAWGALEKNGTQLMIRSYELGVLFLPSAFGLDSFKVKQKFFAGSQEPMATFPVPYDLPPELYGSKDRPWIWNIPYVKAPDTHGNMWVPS
Experimental: (§1) (TDP assay buffer: 50 mM Tris HCl, pH 7.5, 80 mM KCl, 2 mM EDTA, 1 mM DTT, 40 μg/ml BSA and 0.01% Tween-20. TDP1 (20 mg/mL in 25 mM Tris-HCl pH 7.2, 150 mM NaCl, 2 mM tris(2-carboxyethyl)phosphine) with 2 mL of well solution composed of 0.1 M MOPS/HEPES pH 7.5, 10% (w/v) PEG 8000, 20% (v/v) ethylene glycol, 0.03 M sodium fluoride, 0.03 M sodium bromide, 0.03 M sodium iodide, 0.03 M sodium bromide and sealed over […] well solution. AF647 labelling buffer: Tris-HCl (pH 7.2, 25 mM), NaCl (150 mM), and tris(2-carboxyethyl)phosphine hydrochloride (TCEP, 2 mM).)
(§2) (DNA only: Buffer+DMSO. DMSO only: Enzyme+DMSO. Drug: Enzyme+Drug, 25° C., 10 min+DNA, reaction at 25° C., 15 min.)
Gel images were scanned using a Typhoon FLA 9500 scanner (GE Healthcare) and densitometric analyses were performed using the ImageQuant software (GE Healthcare). The IC50 of TDP1 inhibitors was calculated by comparing the percentage of cleavage product (5′Cy5-[…]-p-3′) to DMSO control.

[2] = molecular target: TDP2 (Homo sapiens (Human), UniProt O95551); experiment: gel-based TDP2 fluorescence assay in vitro; assay type: biochemical; conditions: read-out: TDP2 IC50
Sequence of TDP2 (O95551 whole entry, species assumed): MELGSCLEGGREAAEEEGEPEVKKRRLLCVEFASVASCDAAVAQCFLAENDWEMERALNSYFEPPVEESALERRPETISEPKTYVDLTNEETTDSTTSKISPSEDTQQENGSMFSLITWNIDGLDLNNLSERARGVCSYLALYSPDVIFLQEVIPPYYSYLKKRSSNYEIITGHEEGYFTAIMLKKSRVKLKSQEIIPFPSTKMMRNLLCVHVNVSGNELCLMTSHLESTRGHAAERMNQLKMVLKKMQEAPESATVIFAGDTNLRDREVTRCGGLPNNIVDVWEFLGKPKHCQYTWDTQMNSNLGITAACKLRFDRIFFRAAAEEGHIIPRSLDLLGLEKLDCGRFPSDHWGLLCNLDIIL
Experimental: as §1, §2

[3] = Table 7, HPLC-purified oxime leads
[4] = Table 7, ratio of IC50 TDP2 to TDP1
[5] = Table 8, lead compounds with different linkers
[6] = Table 9, fluorosulfates and sulfonyl fluorides

SMILES	IC50 [2, 3]	FC (fold change) [1, 4]	further results
N#Cc1ccc(-c2ccc(/C=N\OCc3ccc4nc(-c5ccccc5)c(Nc5ccc(C(=O)O)cc5)n4c3)cc2)nc1 [XZ717, (Z)-4-((6-((((4-(5-Cyanopyridin-2-yl)benzylidene)amino)oxy)methyl)-2-phenylimidazo[1,2-a]pyridin-3-yl)amino)benzoic acid]	> 100 µM	>2	IC50 [1, 3]: 50.3 ± 10.7 µM
N#Cc1ccc(-c2ccc(Cn3cc(COc4ccc(-c5nc6ccccn6c5Nc5ccc(C(=O)O)cc5)cc4)nn3)cc2)nc1 [XZ721, 4-((2-(4-((1-(4-(5-Cyanopyridin-2-yl)benzyl)-1H-1,2,3-triazol-4-yl)methoxy)phenyl)imidazo[1,2-a]pyridin-3-yl)amino)benzoic acid]			IC50 [1, 5]: 60 ± 17 µM; FC (fold change) ([1]; Table 8, ratio of IC50 TDP2 to TDP1): >1; IC50 [2, 5]: > 100 µM
O=C(O)c1ccc(Nc2c(-c3ccc(OS(=O)(=O)F)cc3)nc3cc(-c4ccccc4)ccn23)cc1 [XZ728, 4-((2-(4-((Fluorosulfonyl)oxy)phenyl)-7-phenylimidazo[1,2-a]pyridin-3-yl)amino)benzoic acid]			IC50 [1, 6]: > 100 µM; IC50 [2, 6]: > 100 µM
O=C(O)c1ccc(Nc2c(-c3cccc(OS(=O)(=O)F)c3)nc3cc(-c4ccccc4)ccn23)cc1 [XZ729, 4-((2-(3-((Fluorosulfonyl)oxy)phenyl)-7-phenylimidazo[1,2-a]pyridin-3-yl)amino)benzoic acid]			IC50 [1, 6]: > 100 µM; IC50 [2, 6]: > 100 µM
O=C1CCC(N2C(=O)c3cccc(NCCCCCCNCc4ccc(-c5nc6cc(-c7ccccc7)ccn6c5Nc5ccc(C(=O)O)cc5)cc4)c3C2=O)C(=O)N1 (stereo not shown) [XZ742, 4-((2-(4-(((6-((2-(2,6-Dioxopiperidin-3-yl)-1,3-dioxoisoindolin-4-yl)amino)hexyl)amino)methyl)phenyl)-7-phenylimidazo[1,2-a]pyridin-3-yl)amino)benzoic acid]			IC50 ([1]; Table 10, PROTACs): > 100 µM; IC50 ([2]; Table 10, PROTACs): > 100 µM

Further lines, with some results ahead:

IC50 [2, 3]	FC (fold change) [1, 4]	SMILES	further results
> 100 µM		Cc1cncc(Oc2ccc(/C=N/OCc3ccc4nc(-c5ccccc5)c(Nc5ccc(C(=O)O)cc5)n4c3)cc2)n1 [XZ707, (E)-4-((6-((((4-((6-methylpyrazin-2-yl)oxy)benzylidene)amino)oxy)methyl)-2-phenylimidazo[1,2-a]pyridin-3-yl)amino)benzoic acid]	IC50 [1, 3]: > 100 µM
> 100 µM	>2	O=C(O)c1ccc(Nc2c(-c3ccc(CO/N=C\c4ccc(-c5cnccn5)cc4)cc3)nc3cc(-c4ccccc4)ccn23)cc1 [XZ709, (Z)-4-((7-Phenyl-2-(4-((((4-(pyrazin-2-yl)benzylidene)amino)oxy)methyl)phenyl)imidazo[1,2-a]pyridin-3-yl)amino)benzoic acid]	
> 100 µM	>13	O=C(O)c1ccc(Nc2c(-c3ccc(CO/N=C\c4ccc(N5CCCC5=O)cc4)cc3)nc3cc(-c4ccccc4)ccn23)cc1 [XZ710, (Z)-4-((2-(4-((((4-(2-Oxopyrrolidin-1-yl)benzylidene)amino)oxy)methyl)phenyl)-7-phenylimidazo[1,2-a]pyridin-3-yl)amino)benzoic acid]	
> 100 µM	>2	Cc1cncc(Oc2ccc(/C=N\OCc3ccc(-c4nc5cc(-c6ccccc6)ccn5c4Nc4ccc(C(=O)O)cc4)cc3)cc2)n1 [XZ711, (Z)-4-((2-(4-((((4-((6-methylpyrazin-2-yl)oxy)benzylidene)amino)oxy)methyl)phenyl)-7-phenylimidazo[1,2-a]pyridin-3-yl)amino)benzoic acid]	
> 100 µM	>2	O=C(O)c1ccc(Nc2c(-c3ccc(CO/N=C\c4ccc(-c5ccccc5)cc4)cc3)nc3cc(-c4ccccc4)ccn23)cc1 [XZ712, (Z)-4-((2-(4-(((([1,1′-Biphenyl]-4-ylmethylene)amino)oxy)methyl)phenyl)-7-phenylimidazo[1,2-a]pyridin-3-yl)amino)benzoic acid]	
